According to patent US5486515A, “2-fluoroalkyl-1,4-benzoxaxines as potassium channel mediators” (Zeneca Limited, priority 1993, dated 1996):
Like-named read-outs stand apart in the source and are kept apart here.

Experiments:
[1] = test system: bladder detrusor smooth muscle; assay: first in vitro test: relaxation of guinea pig bladder detrusor strips contracted with 15 mM KCl; assay type: cell-based, Male albino Hartley guinea pigs; conditions: for IC50: Cavia porcellus; for relaxation and reduction of the myogenic activity of guinea pig detrusor strips: first test, calcium channel blockers
Protocol: Male albino Hartley guinea pigs (450-500 g) are sacrificed by carbon dioxide induced asphyxiation and quickly exsanguinated. The lower abdominal cavity is opened and the urinary bladder isolated. […] The solution is warmed to 37° C. and gassed with 95% O2 and 5% CO2. With vigorous bubbling, the solution should have a pH value close to 7.4.
The dome of the washed bladder is cut off and discarded; the remaining bladder is placed on a gauze in a Petri dish containing the buffer solution. A mid-ventral longitudinal cut is made with scissors to open the bladder. The strips cut from the dome and the base edge are discarded. The remaining detrusor mid-section is cut into two horizontal strips with an approximate width of 2.0 mm. These two strips are further bisected at the mid-dorsal section, creating four strip of similar dimensions. Each strip thus contains both dorsal and ventral portions of the bladder.
The two ends of each individual strip are tied to a glass support rod and a force-displacement transducer (Grass model FR03), respectively, with 4-0 black braided silk suture.
The transducers are connected to a polygraph (Grass model 7E), which is calibrated at 5 mV/cm and the calibration checked for linearity with weights of 5 and 0.5 grams. The analog electrical output signals from the polygraph are digitized by a Modular Instrument Micro 5000 signal processing system using Biowindow Data Acquisition Software, which is run under the Microsoft OS/2 operating system with an IBM-compatible PC.
The detrusor strips on the glass rod are secured in 20 ml tissue baths and allowed to equilibrate under a preload tension of 2 grams. During the following 45 to 60 min equilibration period, the tissue is washed with fresh buffer solution at 15 min interval, with the tension adjusted, if necessary, to 2 grams prior to washing. After the equilibration period, a priming dose of 15 mM KCl (total concentration in the bath) is applied. The tissue is washed after 10 min and washed twice more at 15 min intervals with tension adjusted to 2 grams before each washing.
When the tissue relaxes to a steady state after the final washing, 15 mM KCl is again applied. Once the myogenic activity of the tissue reaches a steady state, the baseline data are acquired through the Biowindows Data Acquisition System by averaging 5 min of the myogenic data sampled at 32 Hz. Once the baseline is acquired, the experimental compounds are dosed in a cumulative manner in half log unit increments. The contact time for each dose is 10 min with the final 5 min being the period of time that the dose reponse data are required. […] The effect of the compound at each dose is expressed as % of the maximum inhibitory response, which is further normalized with respect to the corresponding effect of the compound vehicle control. The normalized response is then used to derive the IC50 of the relaxant activity of the compound through the application of Marquardt' s nonlinear iterative curve fitting technique to a standard dose-response function.

detrusor smooth muscle = assay: second in vitro test: relaxation of guinea pig detrusor strips contracted with 80 mM KCl; assay type: cell-based; conditions: for potency in the second test relative to the first test: 80 mM KCl vs 15 mM KCl; for relaxation and reduction of the myogenic activity of guinea pig detrusor strips: second test, calcium channel blockers
Protocol: This second in vitro test is similar to the one described above with regard to tissue preparation and data acquisition. However, the following exceptions are noted. In this second test, the contraction of the detrusor strips during priming and after the equilibration period is achieved with 80 mM instead of 15 mM KCl (total concentration in the bath).

[2] = ability to relax bladder smooth muscle, comparison with non-fluorinated analogs, read-out: IC50

Compound | IC50 [1, 2] [nM] | relaxation and reduction of the myogenic activity of guinea pig detrusor strips (detrusor smooth muscle; 80 mM KCl) | also measured
CC1(C)CN(c2cccc[n+]2[O-])c2cc(S(=O)(=O)c3ccccc3)ccc2O1 [*] | 4100 |  | 
CC1(C)CN(c2cccc[n+]2[O-])c2cc([N+](=O)[O-])ccc2O1 [@] | 74 |  | 
CC1(C(F)(F)F)CN(c2cccc[n+]2[O-])c2cc(S(=O)(=O)c3ccccc3)ccc2O1 (stereo not drawn) [Example 1, 2-(2-Methyl-2-trifluoromethyl-6-phenylsulfonyl-3,4-dihydro-2H-1,4-benzoxazin-4-yl)pyridine-N-oxide] | 540 |  | IC50 ([1]; guinea pig detrusor strips, read-out: IC50 (50% decrease in the in vitro contraction of the bladder tissue)): 540 nM
O=[N+]([O-])c1ccc2c(c1)N(c1cccc[n+]1[O-])CC(CF)(CF)O2 [Example 4, 2-(2,2-(bis)Fluoromethyl-6-nitro-3,4-dihydro-2-H-1,4-benzoxazine-4-yl)pyridine-N-oxide] | 25 |  | 
O=S(=O)(c1ccccc1)c1ccc2c(c1)N(c1cccc[n+]1[O-])CC(CF)(CF)O2 [Example 5, 2-(2,2-(bis)Fluoromethyl-6-phenylsulfonyl-3,4-dihydro-2H-1,4-benzoxazine-4-yl)pyridine-N-oxide] | 2250 |  | 
O=S(=O)(c1ccccc1)c1ccc2c(c1)N(c1cccc[n+]1[O-])CC(C(F)F)(C(F)F)O2 [Example 6, 2-(2,2-bis(Difluoromethyl)-6-phenylsulfonyl-3,4-dihydro-2H-1,4-benzoxazine-4-yl)pyridine-N-oxide] | 360 |  | 
O=[N+]([O-])c1ccc2c(c1)N(c1cccc[n+]1[O-])CC(C(F)F)(C(F)F)O2 [Example 8, 2-(2,2-bis(Difluoromethyl)-6-nitro-3,4-dihydro-2H-1,4-benzoxazine-4-yl)pyridine-N-oxide] | 7 |  | 
CC1(C)Oc2ccc(C#N)cc2C(N2CCCC2=O)C1O (stereo not drawn) [cromakalim] |  |  | relaxant activity in the second test (detrusor smooth muscle; 80 mM KCl, at concentrations as high as 30 μM): insignificant relaxant activity; IC50 ([1]; putative potassium channel opener, read-out: relaxant activity IC50 in the first test): 600 to 900 nM
COC(=O)C1=C(C)NC(C)=C(C(=O)OC(C)C)C1c1cccc2nonc12 (stereo not drawn) [isradipine] |  | able to relax and reduce the myogenic activity | potency in the second test relative to the first test (detrusor smooth muscle): more potent in the second test; relaxation and reduction of the myogenic activity of guinea pig detrusor strips [1]: able to relax and reduce the myogenic activity
COC(=O)C1=C(C)NC(C)=C(C(=O)OC)C1c1ccccc1[N+](=O)[O-] [nifedipine] |  | able to relax and reduce the myogenic activity | 
COCCOC(=O)C1=C(C)NC(C)=C(C(=O)OC(C)C)C1c1cccc([N+](=O)[O-])c1 (stereo not drawn) [nimodipine] |  | able to relax and reduce the myogenic activity | potency in the second test relative to the first test (detrusor smooth muscle): more potent in the second test; relaxation and reduction of the myogenic activity of guinea pig detrusor strips [1]: able to relax and reduce the myogenic activity
COc1ccc(Cc2nccc3cc(OC)c(OC)cc23)cc1OC [papaverine] |  |  | abolition of the KCl-induced tension (detrusor smooth muscle; 80 mM KCl, 300 μM, maximum response): totally abolished
COc1ccc(CCN(C)CCCC(C#N)(c2ccc(OC)c(OC)c2)C(C)C)cc1OC (stereo not drawn) [verapamil] |  | able to relax and reduce the myogenic activity | potency in the second test relative to the first test (detrusor smooth muscle): more potent in the second test; relaxation and reduction of the myogenic activity of guinea pig detrusor strips [1]: able to relax and reduce the myogenic activity
